Measurements: patent publication US20250333405A1, “ANTAGONISTS OF GPR39 PROTEIN” (VASOCARDEA, INC., priority 2024, published 2025)
Structures can show the parent of a compound that is named as a salt.

Each compound was assayed against T1, human GPR39 receptor (Homo sapiens, UniProt O43194) (assay: Intracellular calcium response (FLIPR, Calcium-6) in PC3 cells, antagonism of agonist C3 (TC-G 1008) at EC90). Conditions: functional pKi (-Log10Ki) by modified Cheng-Prusoff from IC50; PC3 cells endogenously expressing human GPR39; 30 μM ZnCl2; agonist C3 (TC-G 1008) at EC90 1.5 μM; read-out: fpKi activity.
T1 construct: PC3 Cells, Expressing the Endogenous Human GPR39 Receptor; endogenous in cells; host or cells: PC3 (human prostate adenocarcinoma) cells
T1 sequence (O43194 1-453): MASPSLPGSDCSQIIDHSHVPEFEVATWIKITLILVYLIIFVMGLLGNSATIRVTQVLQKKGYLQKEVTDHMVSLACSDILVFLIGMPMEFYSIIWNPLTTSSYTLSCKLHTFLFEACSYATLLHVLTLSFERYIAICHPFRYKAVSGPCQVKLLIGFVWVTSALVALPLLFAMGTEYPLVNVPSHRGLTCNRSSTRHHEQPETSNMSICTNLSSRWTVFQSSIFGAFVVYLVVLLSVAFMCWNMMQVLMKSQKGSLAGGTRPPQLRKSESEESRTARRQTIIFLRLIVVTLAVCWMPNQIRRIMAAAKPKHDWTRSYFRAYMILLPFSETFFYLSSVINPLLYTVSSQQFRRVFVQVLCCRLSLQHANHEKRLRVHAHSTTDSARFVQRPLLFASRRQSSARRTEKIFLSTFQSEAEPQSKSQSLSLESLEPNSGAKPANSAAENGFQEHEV
Format: cell-based
Description: Measurement of Intracellular Calcium Response in PC3 Cells, Expressing the Endogenous Human GPR39 Receptor
Human prostate adenocarcinoma (PC3) cells endogenously expressing human GPR39 receptor were seeded into black walls clear-base 384-well plates at a density of 7,500 cells per well in DMEM (Low Glucose) supplemented with 10% heat-inactivated foetal bovine serum and 1% of Pen/Strep and grown overnight at 37° C., 5% CO2. After washing with assay buffer (20 mM HEPES, 137 mM NaCl, 5.4 mM KCl, 10 mM glucose, 0.8 mM MgSO4, 1.3 mM CaCl2), 0.3 mM Na2HPO4, 0.4 mM KH2PO4 4.2 mM NaHCO3, pH 7.4), cells were incubated with Calcium-6 probe (Molecular Devices) at 37° C. for 2 h and then equilibrated at RT for 30 minutes on metal block. The fluorescence was measured in real time by Fluorometric Imaging Plate Reader (FLIPR TETRA, Molecular Devices) (excitation wavelength at 470-495 nm, emission wavelength at 515-575 nm). Compounds of invention were serially diluted in neat DMSO at 1000 fold concentrations and plated into 384-well plates and then 200-fold diluted in assay buffer containing 150 μM ZnCl2 (30 μM final concentration) and 1.1% DMSO (0.32% final concentration). A dual addition FLIPR protocol was used which included a first addition of compounds 200-fold diluted in Assay Buffer containing 150 μM ZnCl2 and 1.1% DMSO and then after 10 minutes a second addition of a submaximal concentration of the hGPR39 receptor agonist, C3 (Tocris, TC-G 1008) at EC90 (concentration producing 90% of the maximal response) value of 1.5 μM. Fluorescence was monitored throughout the run assay. The peak of Ca2+ stimulation (baseline subtracted) was expressed as percentage of the maximal inhibition of the EC90 C3 response and was plotted versus the concentration of test compound. Curve fitting and IC50 estimations are carried out using a four-parameter logistic model using XLfit Software. […] An fpKi less than 5.2 is reported as “+/−”. An fpKi ranging from 5.2 to 5.9 is reported as “+”. An fpKi from 6.0 to 6.5 is reported as “++”. An fpKi from 6.6 to 7.2 is reported as “+++”. An fpKi equal to or greater than 7.3 is reported as “++++”.

Row | Structure (SMILES) | Ki
1 | C[C@@H]1CN(C(=O)c2ccc(NC(=O)C3CC3)cc2N2CCCC2)C[C@@H](C)O1 (racemic) [Example 4, N-[4-[(trans)-2,6-dimethylmorpholine-4-carbonyl]-3-pyrrolidin-1-ylphenyl]cyclopropanecarboxamide] | 1260 to 6310 nM
2 | Cc1cc(Nc2ccc(C(=O)N3CCN(C)CC3c3ccccc3)c(N3CCCC3)c2)on1 (racemic) [Example 18, [4-[(3-methyl-1,2-oxazol-5-yl)amino]-2-pyrrolidin-1-ylphenyl]-(4-methyl-2-phenylpiperazin-1-yl)methanone] | 1260 to 6310 nM
3 | CC(C)n1ccc(-c2cc(NC(=O)C3CC3)ccc2C(=O)N2CCN(C)CC2c2ccccc2)n1 (racemic) [Example 30, N-[4-(4-methyl-2-phenylpiperazine-1-carbonyl)-3-(1-propan-2-ylpyrazol-3-yl)phenyl]cyclopropanecarboxamide] | 316 to 1000 nM
4 | CN1CCN(C(=O)c2ccc(NC(=O)C3CC3)cc2-c2cnc(C(F)(F)F)s2)C(c2ccccc2)C1 (racemic) [Example 31, N-[4-(4-methyl-2-phenylpiperazine-1-carbonyl)-3-[2-(trifluoromethyl)-1,3-thiazol-5-yl]phenyl]cyclopropanecarboxamide] | > 6310 nM
5 | Cc1ncc(-c2cc(NC(=O)C3CC3)ccc2C(=O)N2CCN(C)CC2c2ccccc2)s1 (racemic) [Example 32, N-[4-(4-methyl-2-phenylpiperazine-1-carbonyl)-3-(2-methyl-1,3-thiazol-5-yl)phenyl]cyclopropanecarboxamide] | 1260 to 6310 nM
6 | CN1CCN(C(=O)c2ccc(NC(=O)C3CC3)cc2-c2ccc(C(F)(F)F)s2)C(c2ccccc2)C1 (racemic) [Example 33, N-[4-(4-methyl-2-phenylpiperazine-1-carbonyl)-3-[5-(trifluoromethyl)thiophen-2-yl]phenyl]cyclopropanecarboxamide] | > 6310 nM
7 | Cc1ccc(-c2cc(NC(=O)C3CC3)ccc2C(=O)N2CCN(C)CC2c2ccccc2)s1 (racemic) [Example 34, N-[4-(4-methyl-2-phenylpiperazine-1-carbonyl)-3-(5-methylthiophen-2-yl)phenyl]cyclopropanecarboxamide] | 63.1 to 251 nM
8 | CN1CCN(C(=O)c2ccc(NC(=O)C3CC3)cc2N2CCCC2)C(c2ccccc2C(F)(F)F)C1 (racemic) [Example 106, N-[4-[4-methyl-2-[2-(trifluoromethyl)phenyl]piperazine-1-carbonyl]-3-pyrrolidin-1-ylphenyl]cyclopropanecarboxamide] | 316 to 1000 nM
9 | CN1CCN(C(=O)c2ccc(NC(=O)C3CC3)cc2N2CCCC2)C(c2cccc(C#N)c2)C1 (racemic) [Example 107, N-[4-[2-(3-cyanophenyl)-4-methylpiperazine-1-carbonyl]-3-pyrrolidin-1-ylphenyl]cyclopropanecarboxamide] | 63.1 to 251 nM
10 | Cc1ccc(C2CN(C)CCN2C(=O)c2ccc(NC(=O)C3CC3)cc2N2CCCC2)cc1 (racemic) [Example 109, N-[4-[4-methyl-2-(4-methylphenyl)piperazine-1-carbonyl]-3-pyrrolidin-1-ylphenyl]cyclopropanecarboxamide] | 63.1 to 251 nM
11 | Cc1cc(Cl)cc(C2CN(C)CCN2C(=O)c2ccc(NC(=O)C3CC3)cc2N2CCCC2)c1 (racemic) [Example 110, N-[4-[2-(3-chloro-5-methylphenyl)-4-methylpiperazine-1-carbonyl]-3-pyrrolidin-1-ylphenyl]cyclopropanecarboxamide] | ≤ 50.1 nM
12 | Cc1cccc(C2CN(C)CCN2C(=O)c2ccc(NC(=O)C3CC3)cc2N2CCCC2)c1 (racemic) [Example 111, N-[4-[4-methyl-2-(3-methylphenyl)piperazine-1-carbonyl]-3-pyrrolidin-1-ylphenyl]cyclopropanecarboxamide] | 63.1 to 251 nM
13 | Cc1nnc(-c2ccc(C(=O)N3CCC(F)(F)CC3)c(-c3ccn(C(C)C4CC4)n3)c2)[nH]1 (single isomer, unassigned) [Example 57a, [2-[1-(1R or 1S-cyclopropylethyl)pyrazol-3-yl]-4-(5-methyl-4H-1,2,4-triazol-3-yl)phenyl]-(4,4-difluoro-1-piperidyl)methanone] | ≤ 50.1 nM
14 | O=C(Nc1ccc(C(=O)N2CCCC2c2ccccc2)c(N2CCCC2)c1)C1CC1 (stereo not drawn) [Example 1, N-[4-(2-phenylpyrrolidine-1-carbonyl)-3-pyrrolidin-1-ylphenyl]cyclopropanecarboxamide] | 1260 to 6310 nM
15 | O=C(Nc1ccc(C(=O)N2CCC(c3ccccc3)C2)c(N2CCCC2)c1)C1CC1 (stereo not drawn) [Example 2, N-[4-(3-phenylpyrrolidine-1-carbonyl)-3-pyrrolidin-1-ylphenyl]cyclopropanecarboxamide] | 1260 to 6310 nM
16 | O=C(Nc1ccc(C(=O)N2CCC3(COC3)C2)c(N2CCCC2)c1)C1CC1 [Example 3, N-[4-(2-oxa-7-azaspiro[3.4]octane-7-carbonyl)-3-pyrrolidin-1-ylphenyl]cyclopropanecarboxamide] | 1260 to 6310 nM
17 | CC1CN(C(=O)c2ccc(NC(=O)C3CC3)cc2N2CCCC2)CC(C)S1(=O)=O (stereo not drawn) [Example 5, N-[4-(2,6-dimethyl-1,1-dioxo-1,4-thiazinane-4-carbonyl)-3-pyrrolidin-1-ylphenyl]cyclopropanecarboxamide] | > 6310 nM
18 | O=C(Nc1ccc(C(=O)N2CC3CCC(C2)O3)c(N2CCCC2)c1)C1CC1 [Example 6, N-[4-(8-oxa-3-azabicyclo[3.2.1]octane-3-carbonyl)-3-pyrrolidin-1-ylphenyl]cyclopropanecarboxamide] | 316 to 1000 nM

The remaining lines, values ahead:

Row | Ki | Structure (SMILES)
19 | ≤ 50.1 nM | Cc1cc(Cl)cc(C2CN(C)CCN2C(=O)c2ccc(NC(=O)C3CC3)cc2N2CCCC2)c1 (single isomer, unassigned) [Example 110a, N-[4-[2S or 2R-(3-chloro-5-methylphenyl)-4-methylpiperazine-1-carbonyl]-3-pyrrolidin-1-ylphenyl]cyclopropanecarboxamide hydrochloride]
20 | 1260 to 6310 nM | Cc1cc(Cl)cc(C2CN(C)CCN2C(=O)c2ccc(NC(=O)C3CC3)cc2N2CCCC2)c1 (single isomer, unassigned) [Example 110b, N-[4-[2S or 2R-(3-chloro-5-methylphenyl)-4-methylpiperazine-1-carbonyl]-3-pyrrolidin-1-ylphenyl]cyclopropanecarboxamide hydrochloride]
21 | 316 to 1000 nM | Cc1nnc(-c2ccc(C(=O)N3CCN(C)CC3c3ccccc3)c(N3CCC(C(C)C)C3)c2)[nH]1 (single isomer, unassigned) [Example 125a, (4-methyl-2-phenylpiperazin-1-yl)-[4-(5-methyl-4H-1,2,4-triazol-3-yl)-2-(3-propan-2-ylpyrrolidin-1-yl)phenyl]methanone]
22 | ≤ 50.1 nM | Cc1nnc(-c2ccc(C(=O)N3CCN(C)CC3c3ccccc3)c(N3CCC(C(C)C)C3)c2)[nH]1 (single isomer, unassigned) [Example 125b, (4-methyl-2-phenylpiperazin-1-yl)-[4-(5-methyl-4H-1,2,4-triazol-3-yl)-2-(3-propan-2-ylpyrrolidin-1-yl)phenyl]methanone]
23 | 63.1 to 251 nM | Cc1nnc(-c2ccc(C(=O)N3CCN(C)CC3c3ccccc3)c(N3CCC(C(C)C)C3)c2)[nH]1 (single isomer, unassigned) [Example 125c, (4-methyl-2-phenylpiperazin-1-yl)-[4-(5-methyl-4H-1,2,4-triazol-3-yl)-2-(3-propan-2-ylpyrrolidin-1-yl)phenyl]methanone]
24 | ≤ 50.1 nM | Cc1nnc(-c2ccc(C(=O)N3CCN(C)CC3c3ccccc3)c(N3CCC(C(C)C)C3)c2)[nH]1 (single isomer, unassigned) [Example 125d, (4-methyl-2-phenylpiperazin-1-yl)-[4-(5-methyl-4H-1,2,4-triazol-3-yl)-2-(3-propan-2-ylpyrrolidin-1-yl)phenyl]methanone]
